These results are taken from publication PMC6437697 (Journal of Medicinal Chemistry, 2019).

Structures are written as SMILES. Bounds are passed on as bounds.

What all share (test): KINOMEscan
Common to all, as to type: binding

The target in one assay is T1, PIK3C2B (Homo sapiens, UniProt O00750).
T1 construct: purchased Eurofins DiscoverX KINOMEscan
Particulars: read-out: % control activity remaining.

The target of the next assay is T2, MERTK (Homo sapiens, UniProt Q12866).
T2 construct: purchased Eurofins DiscoverX KINOMEscan
T2 sequence (Q12866 21-999): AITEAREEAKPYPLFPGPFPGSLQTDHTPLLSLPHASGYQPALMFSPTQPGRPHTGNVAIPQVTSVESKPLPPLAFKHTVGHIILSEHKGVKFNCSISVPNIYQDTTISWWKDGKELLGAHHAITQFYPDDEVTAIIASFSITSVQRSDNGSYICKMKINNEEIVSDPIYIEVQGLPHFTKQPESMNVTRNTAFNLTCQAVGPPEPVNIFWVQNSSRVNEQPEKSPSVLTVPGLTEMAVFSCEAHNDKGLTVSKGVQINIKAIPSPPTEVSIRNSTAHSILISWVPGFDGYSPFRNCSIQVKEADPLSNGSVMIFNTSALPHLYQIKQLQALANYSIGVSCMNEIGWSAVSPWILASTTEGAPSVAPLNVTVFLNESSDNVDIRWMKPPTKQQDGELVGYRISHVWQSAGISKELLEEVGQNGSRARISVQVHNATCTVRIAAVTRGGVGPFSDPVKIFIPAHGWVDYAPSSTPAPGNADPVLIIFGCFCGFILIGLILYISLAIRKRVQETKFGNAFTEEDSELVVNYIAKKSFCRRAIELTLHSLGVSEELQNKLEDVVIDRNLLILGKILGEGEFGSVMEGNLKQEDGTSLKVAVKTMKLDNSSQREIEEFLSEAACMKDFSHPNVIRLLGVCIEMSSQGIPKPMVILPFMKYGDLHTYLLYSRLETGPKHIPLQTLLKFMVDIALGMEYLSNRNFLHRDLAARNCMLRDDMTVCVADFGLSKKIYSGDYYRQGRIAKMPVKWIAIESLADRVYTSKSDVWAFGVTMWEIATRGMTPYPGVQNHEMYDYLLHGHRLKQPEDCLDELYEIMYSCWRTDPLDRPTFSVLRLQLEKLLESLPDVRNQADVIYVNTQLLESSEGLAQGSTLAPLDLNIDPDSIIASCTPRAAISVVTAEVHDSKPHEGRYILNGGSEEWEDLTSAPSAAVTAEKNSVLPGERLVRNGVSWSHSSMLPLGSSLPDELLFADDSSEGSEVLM
As to conditions: read-out: % control activity remaining.

The target of another assay is T3, AMPK-alpha1 (Homo sapiens, UniProt Q13131).
T3 construct: purchased Eurofins DiscoverX KINOMEscan
T3 sequence (Q13131 whole entry): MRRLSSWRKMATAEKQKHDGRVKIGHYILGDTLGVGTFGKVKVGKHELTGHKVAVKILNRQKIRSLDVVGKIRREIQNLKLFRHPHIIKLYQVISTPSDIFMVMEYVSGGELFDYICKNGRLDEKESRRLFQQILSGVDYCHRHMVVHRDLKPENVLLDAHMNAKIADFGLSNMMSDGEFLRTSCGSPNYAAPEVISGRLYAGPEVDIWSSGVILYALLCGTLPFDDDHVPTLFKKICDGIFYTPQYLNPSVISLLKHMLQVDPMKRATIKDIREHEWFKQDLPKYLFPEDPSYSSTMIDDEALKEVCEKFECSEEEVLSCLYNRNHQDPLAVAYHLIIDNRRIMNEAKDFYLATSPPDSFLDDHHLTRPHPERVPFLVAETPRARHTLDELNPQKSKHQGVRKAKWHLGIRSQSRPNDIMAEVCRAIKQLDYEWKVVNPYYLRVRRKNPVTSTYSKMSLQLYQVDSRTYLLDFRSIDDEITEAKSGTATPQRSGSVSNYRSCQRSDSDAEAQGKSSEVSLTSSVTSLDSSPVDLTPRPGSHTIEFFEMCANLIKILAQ
Particulars: read-out: % control activity remaining.

The next assay concerns the target T4, CAMK2A (Homo sapiens, UniProt Q9UQM7).
T4 construct: purchased Eurofins DiscoverX KINOMEscan
As to conditions: read-out: % control activity remaining.

For the next assay, the target named is T5, RET(V804L) (Homo sapiens, UniProt P07949, V804L).
T5 construct: purchased Eurofins DiscoverX KINOMEscan
As to conditions: read-out: % control activity remaining.

In a further assay the target is T6, EGFR(L858R,T790M) (Homo sapiens, UniProt P00533, L858R/T790M).
T6 construct: purchased Eurofins DiscoverX KINOMEscan
T6 sequence (P00533 25-1210 T790M/L858R limits assumed): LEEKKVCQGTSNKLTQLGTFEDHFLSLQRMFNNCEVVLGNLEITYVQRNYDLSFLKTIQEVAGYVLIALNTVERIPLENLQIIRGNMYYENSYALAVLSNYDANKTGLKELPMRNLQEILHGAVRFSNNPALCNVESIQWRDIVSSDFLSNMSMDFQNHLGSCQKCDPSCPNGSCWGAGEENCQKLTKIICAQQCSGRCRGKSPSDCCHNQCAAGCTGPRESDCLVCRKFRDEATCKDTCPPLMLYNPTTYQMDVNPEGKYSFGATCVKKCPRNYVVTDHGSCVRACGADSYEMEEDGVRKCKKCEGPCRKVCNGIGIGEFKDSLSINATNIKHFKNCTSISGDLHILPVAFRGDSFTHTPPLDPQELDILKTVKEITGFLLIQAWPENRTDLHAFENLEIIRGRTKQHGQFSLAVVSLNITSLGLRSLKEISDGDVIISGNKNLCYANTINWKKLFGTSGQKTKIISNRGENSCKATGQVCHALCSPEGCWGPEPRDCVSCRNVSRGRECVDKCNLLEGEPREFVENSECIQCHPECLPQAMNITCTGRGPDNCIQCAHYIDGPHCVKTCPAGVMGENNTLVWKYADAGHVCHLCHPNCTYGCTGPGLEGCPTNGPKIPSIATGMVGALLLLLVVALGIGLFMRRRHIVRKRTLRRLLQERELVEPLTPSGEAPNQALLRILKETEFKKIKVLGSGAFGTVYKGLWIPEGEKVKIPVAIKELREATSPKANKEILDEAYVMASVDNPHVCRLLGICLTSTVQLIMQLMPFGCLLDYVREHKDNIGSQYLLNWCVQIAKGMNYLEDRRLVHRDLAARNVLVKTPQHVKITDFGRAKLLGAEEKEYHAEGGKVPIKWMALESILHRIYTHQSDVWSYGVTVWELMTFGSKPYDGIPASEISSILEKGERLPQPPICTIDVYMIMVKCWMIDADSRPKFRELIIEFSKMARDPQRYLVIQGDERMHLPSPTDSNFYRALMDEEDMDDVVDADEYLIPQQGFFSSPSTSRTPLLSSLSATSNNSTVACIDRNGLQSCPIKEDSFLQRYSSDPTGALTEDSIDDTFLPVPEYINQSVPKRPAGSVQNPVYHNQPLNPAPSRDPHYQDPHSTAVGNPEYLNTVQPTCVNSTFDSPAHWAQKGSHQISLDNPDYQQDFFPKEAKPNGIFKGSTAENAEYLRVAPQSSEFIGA
Particulars: read-out: % control activity remaining.

For assay [1], the target named is T7, JAK3(JH1domain-catalytic) (Homo sapiens, UniProt P52333).
T7 construct: JAK3(JH1domain-catalytic); purchased Eurofins DiscoverX KINOMEscan
T7 sequence (P52333 822-1124 limits assumed): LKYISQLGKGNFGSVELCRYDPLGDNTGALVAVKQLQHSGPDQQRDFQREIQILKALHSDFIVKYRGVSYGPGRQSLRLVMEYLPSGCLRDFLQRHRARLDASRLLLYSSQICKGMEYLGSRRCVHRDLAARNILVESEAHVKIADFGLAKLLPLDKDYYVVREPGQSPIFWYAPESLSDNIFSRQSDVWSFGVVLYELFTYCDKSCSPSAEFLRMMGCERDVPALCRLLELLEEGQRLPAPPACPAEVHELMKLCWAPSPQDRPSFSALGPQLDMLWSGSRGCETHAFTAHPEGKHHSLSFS
Particulars: read-out: % control activity remaining.

The target in another assay is T8, PDGFRB (Homo sapiens, UniProt P09619).
T8 construct: purchased Eurofins DiscoverX KINOMEscan
T8 sequence (P09619 33-1106): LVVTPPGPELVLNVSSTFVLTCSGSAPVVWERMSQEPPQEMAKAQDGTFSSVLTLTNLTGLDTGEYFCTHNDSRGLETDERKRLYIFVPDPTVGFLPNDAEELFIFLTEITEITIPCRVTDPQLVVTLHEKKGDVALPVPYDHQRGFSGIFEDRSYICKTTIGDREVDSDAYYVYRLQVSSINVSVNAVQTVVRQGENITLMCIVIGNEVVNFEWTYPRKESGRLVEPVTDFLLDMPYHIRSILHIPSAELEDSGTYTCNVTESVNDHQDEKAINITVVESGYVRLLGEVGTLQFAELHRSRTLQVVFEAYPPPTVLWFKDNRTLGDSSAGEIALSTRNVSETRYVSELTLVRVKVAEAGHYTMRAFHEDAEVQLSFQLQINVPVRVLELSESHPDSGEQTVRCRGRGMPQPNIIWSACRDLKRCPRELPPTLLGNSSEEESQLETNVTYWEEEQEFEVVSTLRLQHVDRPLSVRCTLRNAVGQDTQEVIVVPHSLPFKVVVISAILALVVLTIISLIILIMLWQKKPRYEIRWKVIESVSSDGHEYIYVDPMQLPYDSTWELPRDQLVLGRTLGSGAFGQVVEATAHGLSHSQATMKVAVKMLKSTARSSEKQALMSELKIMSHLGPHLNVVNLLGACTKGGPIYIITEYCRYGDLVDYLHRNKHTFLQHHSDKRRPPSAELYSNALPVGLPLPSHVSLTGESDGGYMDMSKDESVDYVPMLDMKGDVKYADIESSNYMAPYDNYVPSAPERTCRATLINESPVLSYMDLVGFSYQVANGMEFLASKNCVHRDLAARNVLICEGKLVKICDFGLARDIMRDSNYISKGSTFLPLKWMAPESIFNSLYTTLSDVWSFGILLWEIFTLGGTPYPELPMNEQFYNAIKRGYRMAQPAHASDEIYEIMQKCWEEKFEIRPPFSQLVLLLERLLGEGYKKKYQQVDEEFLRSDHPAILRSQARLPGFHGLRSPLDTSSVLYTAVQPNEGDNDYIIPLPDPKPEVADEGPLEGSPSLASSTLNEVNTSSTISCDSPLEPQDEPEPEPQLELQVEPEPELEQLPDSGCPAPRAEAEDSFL
Particulars: for remaining binding at 1 µM: read-out: % control activity remaining.

The target of a further assay is T9, AMPK-alpha2 (Homo sapiens, UniProt P54646).
T9 construct: purchased Eurofins DiscoverX KINOMEscan
Particulars: read-out: % control activity remaining.

Another assay deals with T10, GAK (Homo sapiens, UniProt O14976).
T10 construct: purchased Eurofins DiscoverX KINOMEscan
T10 sequence (O14976 1-1311): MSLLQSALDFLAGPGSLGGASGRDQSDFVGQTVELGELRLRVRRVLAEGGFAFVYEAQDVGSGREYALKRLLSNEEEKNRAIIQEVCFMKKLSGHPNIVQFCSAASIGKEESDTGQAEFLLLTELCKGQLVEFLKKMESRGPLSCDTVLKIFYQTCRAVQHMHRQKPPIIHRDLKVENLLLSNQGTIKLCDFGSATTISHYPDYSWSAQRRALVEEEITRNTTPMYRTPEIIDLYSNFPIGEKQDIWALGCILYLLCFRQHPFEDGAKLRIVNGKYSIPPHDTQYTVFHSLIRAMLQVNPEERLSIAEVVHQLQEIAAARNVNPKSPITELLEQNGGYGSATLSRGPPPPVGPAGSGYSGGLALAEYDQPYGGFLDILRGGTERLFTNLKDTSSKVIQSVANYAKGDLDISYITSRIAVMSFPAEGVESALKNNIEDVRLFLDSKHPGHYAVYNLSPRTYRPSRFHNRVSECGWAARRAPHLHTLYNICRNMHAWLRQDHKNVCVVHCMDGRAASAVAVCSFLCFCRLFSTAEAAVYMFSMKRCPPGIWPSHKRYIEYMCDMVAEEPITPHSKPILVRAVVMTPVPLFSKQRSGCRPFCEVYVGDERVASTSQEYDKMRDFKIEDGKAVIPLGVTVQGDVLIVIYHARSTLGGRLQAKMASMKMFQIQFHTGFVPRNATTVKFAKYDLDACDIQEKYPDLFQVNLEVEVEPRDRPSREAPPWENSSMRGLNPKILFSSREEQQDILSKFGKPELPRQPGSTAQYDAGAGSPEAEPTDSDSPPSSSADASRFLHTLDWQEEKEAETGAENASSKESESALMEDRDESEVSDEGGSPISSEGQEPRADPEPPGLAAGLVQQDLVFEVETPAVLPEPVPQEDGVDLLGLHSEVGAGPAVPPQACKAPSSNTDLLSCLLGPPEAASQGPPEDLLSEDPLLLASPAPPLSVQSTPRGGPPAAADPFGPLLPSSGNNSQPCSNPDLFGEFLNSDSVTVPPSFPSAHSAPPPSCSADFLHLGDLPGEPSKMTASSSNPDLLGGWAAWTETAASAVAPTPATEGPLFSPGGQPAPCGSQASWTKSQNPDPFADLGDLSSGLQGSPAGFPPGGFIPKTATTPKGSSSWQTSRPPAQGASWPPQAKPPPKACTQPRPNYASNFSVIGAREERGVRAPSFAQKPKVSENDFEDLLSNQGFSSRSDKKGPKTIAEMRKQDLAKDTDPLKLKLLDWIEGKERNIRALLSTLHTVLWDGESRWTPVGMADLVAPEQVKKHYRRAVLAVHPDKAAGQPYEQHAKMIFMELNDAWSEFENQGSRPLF
Particulars: read-out: % control activity remaining.

T1 sequence (O00750 whole entry): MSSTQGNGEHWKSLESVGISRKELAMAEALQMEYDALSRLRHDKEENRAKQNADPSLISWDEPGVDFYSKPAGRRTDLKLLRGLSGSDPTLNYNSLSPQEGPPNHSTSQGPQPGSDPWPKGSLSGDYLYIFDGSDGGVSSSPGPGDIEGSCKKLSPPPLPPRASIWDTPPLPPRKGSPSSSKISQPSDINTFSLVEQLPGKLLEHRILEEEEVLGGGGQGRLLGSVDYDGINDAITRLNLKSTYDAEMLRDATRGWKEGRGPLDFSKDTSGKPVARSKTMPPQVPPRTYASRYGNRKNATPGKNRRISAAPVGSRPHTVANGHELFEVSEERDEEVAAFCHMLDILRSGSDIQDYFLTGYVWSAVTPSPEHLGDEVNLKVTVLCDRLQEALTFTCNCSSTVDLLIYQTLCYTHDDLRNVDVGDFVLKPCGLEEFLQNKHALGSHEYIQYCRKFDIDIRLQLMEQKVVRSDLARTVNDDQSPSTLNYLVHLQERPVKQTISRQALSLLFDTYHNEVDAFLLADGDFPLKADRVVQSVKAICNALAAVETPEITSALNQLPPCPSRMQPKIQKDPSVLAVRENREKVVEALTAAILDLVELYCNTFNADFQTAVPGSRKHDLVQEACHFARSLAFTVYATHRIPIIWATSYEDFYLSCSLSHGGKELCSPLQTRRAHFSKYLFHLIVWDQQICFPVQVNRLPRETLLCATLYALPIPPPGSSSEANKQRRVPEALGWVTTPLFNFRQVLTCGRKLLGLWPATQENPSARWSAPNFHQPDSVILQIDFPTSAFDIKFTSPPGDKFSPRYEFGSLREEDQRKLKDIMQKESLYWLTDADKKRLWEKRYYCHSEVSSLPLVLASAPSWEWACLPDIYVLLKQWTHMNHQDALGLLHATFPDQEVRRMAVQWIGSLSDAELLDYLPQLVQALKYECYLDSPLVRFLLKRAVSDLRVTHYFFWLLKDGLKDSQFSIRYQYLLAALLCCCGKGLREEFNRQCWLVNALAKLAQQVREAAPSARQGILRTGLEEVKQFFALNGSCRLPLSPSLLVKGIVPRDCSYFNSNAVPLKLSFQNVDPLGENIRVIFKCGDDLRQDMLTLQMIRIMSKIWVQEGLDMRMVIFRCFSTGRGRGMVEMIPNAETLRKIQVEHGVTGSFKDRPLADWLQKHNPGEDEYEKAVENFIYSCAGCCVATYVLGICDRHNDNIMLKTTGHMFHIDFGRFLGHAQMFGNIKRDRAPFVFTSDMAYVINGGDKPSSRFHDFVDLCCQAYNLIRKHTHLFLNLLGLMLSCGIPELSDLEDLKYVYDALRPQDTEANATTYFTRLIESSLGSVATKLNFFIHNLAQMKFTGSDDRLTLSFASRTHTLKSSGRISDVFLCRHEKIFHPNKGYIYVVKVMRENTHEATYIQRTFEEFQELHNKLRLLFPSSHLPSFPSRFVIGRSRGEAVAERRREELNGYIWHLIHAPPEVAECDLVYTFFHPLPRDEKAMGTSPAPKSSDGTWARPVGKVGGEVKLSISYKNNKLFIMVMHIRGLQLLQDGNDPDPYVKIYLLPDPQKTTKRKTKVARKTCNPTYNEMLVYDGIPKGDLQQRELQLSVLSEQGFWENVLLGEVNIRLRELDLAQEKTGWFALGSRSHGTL

As for `Clc1cc(NCC2CC2)c2ncc(-c3ccc4[nH]ncc4c3)n2n1` [compound 2, 6-Chloro-N-(cyclopropylmethyl)-3-(1H-indazol-5-yl)imidazo[1,2-b]pyridazin-8-amine], the remaining binding at 1 µM is 86% at PIK3C2B; 100% on MERTK; 96% at AMPK-alpha1; 100% at CAMK2A; 100% on RET(V804L); 82% on EGFR(L858R,T790M). The remaining binding at 1 µM in [1] was 100%; on PDGFRB it was 1.3%; on AMPK-alpha2 it was 94%; on GAK it was 8.8%.

Turning to `O=C(CN1CCOCC1)N[C@H]1CC[C@H](Nc2cc(Cl)nn3c(-c4ccc5[nH]ncc5c4)cnc23)CC1` [compound 26], the remaining binding at 1 µM is 97% at PIK3C2B; 70% on MERTK; 85% at AMPK-alpha1; 47% on CAMK2A; 88% on RET(V804L); 90% on EGFR(L858R,T790M). The remaining binding at 1 µM in assay [1] amounted to 100%; on PDGFRB it was 0.05%; at AMPK-alpha2, 92%; on GAK it was 10%. Moreover, the inhibition at 1 µM on PDGFRB (read-out: Probe binding inhibited) was greater than 90%.

With `CN1CCC(CNc2cc(Cl)nn3c(-c4cc5nc(Nc6ccccc6)[nH]c5cc4F)cnc23)CC1` [compound 31, 6-Chloro-3-(6-fluoro-2-(phenylamino)-1H-benzo[d]imidazol-5-yl)-N-((1-methylpiperidin-4-yl)methyl)imidazo[1,2-b]pyridazin-8-amine], the remaining binding at 1 µM on PIK3C2B came out at 100%; at MERTK, 82%; at AMPK-alpha1 it was 94%; on CAMK2A it was 99%; on RET(V804L), 92%; on EGFR(L858R,T790M) it was 100%. Also, the remaining binding at 1 µM in assay [1] came to 82%; on PDGFRB, 56%; on AMPK-alpha2, 99%; at GAK it was 33%.
